Reference: patent US20250179167A1, “IL-6 INHIBITOR AS TREATMENT FOR NEPHROPATHY” (YALE UNIVERSITY, priority 2022, published 2025)

Experiments:
Type in all cases: in vivo, mouse
control and GR^ECKO mice = experiment: Wnt inhibitor (LGK974) treatment in nondiabetic and diabetic control and GR^ECKO mice
Protocol: (FIG. 5A) Schematic diagram showing the treatment protocol of Wnt inhibition in diabetic control and GR^ECKO mice. (FIG. 5B) Physiological parameters including body weight, blood glucose and kidney weight/body weight were analyzed. N=6 biologically independent mice/group combined from two experiments. (FIG. 5C) Masson trichrome, Sirius red and PAS staining as well as immunohistochemical analysis of β-catenin levels in the kidneys of wnti-treated diabetic control and GR^ECKO mice. Representative images are shown; original magnification 300×. Relative area of fibrosis (%) and relative collagen deposition (%) were measured using the ImageJ program. N=8 biologically independent mice/group combined from three experiments were analyzed. Scale bar 50 μm. Data are mean SEM. For all panels one-way ANOVA with Tukey post-test was used for analysis of statistical significance. Significance—*p<0.05, **p<0.01, ***p<0.001.
Physiological parameters including body weight, blood glucose, and kidney weight/body weight are shown. n=7 biologically independent mice/group combined from two experiments were analyzed. Data are mean±SEM. One-way Anova with Tukey multiple comparison post hoc test was used to calculate statistical significance.
FIGS. 27A-27B Histological analysis of kidneys from Wnt inhibitor-treated nondiabetic control and GR^ECKO mice. (FIG. 27A) Masson trichrome staining (MITS) and Sirius red staining in Wnt inhibitor-treated nondiabetic control and GR^ECKO mice. Representative images are shown; original magnification 200×. Area of fibrosis (%) and relative collagen deposition (%) were measured using the ImageJ program. N=5 biologically independent mice/group were analyzed. Data are mean±SEM. Scale bar 50 μm. (FIG. 27B) Immunohistochemical analysis of -catenin expression in the kidneys of Wnt inhibitor-treated nondiabetic control and GR^ECKO mice. Scale bar 30 μm. n=6 biologically independent mice/group combined from two independent experiments were analyzed. Representative images are shown; original magnification 300×. One-way Anova with Tukey multiple comparison post hoc test was used to calculate statistical significance. Significance—*p<0.05, **p<0.01, ***p<0.001.
Immunohistochemical analysis of Snail1, PPAR. and HIF1. expression in the Wnti-treated and untreated control, and GR^ECKO mice. Scale bar 50 μm. n=7 biologically independent mice/group combined from three independent experiments were analyzed. Representative images are shown; original magnification 200×.
Immunofluorescence analysis of α-SMA/CD31/DAPI and E-cadherin/α-SMA/DAPI in kidneys of Wnt inhibitor-treated nondiabetic and diabetic mice. Top panel: α-SMA FITC labelled, CD31 rhodamine labelled and DAPI blue; Lower panel: E-Cadherin FITC-green labelled, α-SMA red rhodamine labelled and DAPI blue. Representative images are shown; original magnification 400×. Scale bar 50 μm. n=6 biologically independent mice/group combined from three independent experiments were analyzed. NC: non-diabetic control; DC: diabetic control; D: diabetic.
To determine whether Wnt inhibition could mitigate the renal fibrosis observed in diabetic GR^ECKO mice, a cohort of animals was treated with LGK974. At the age of 8 weeks, control and GR^ECKO mice were injected with STZ 50 mg/kg for five consecutive days. Sixteen weeks after injection, LGK974 was administered by oral gavage for eight additional weeks (FIG. 5A).
Animal Experimentation. All experiments were performed according to a protocol approved by the Institutional Animal Care and Use Committee at the Yale University School of Medicine and were in accordance with the National Institute of Health (NIH) Guidelines for the Care of Laboratory Animals Mice were housed at an ambient temperature of 68-79° F. with a humidity that ranged between 30%-70%. […]

[1] = test system: isolated kidney ECs of diabetic CD-1 mice; experiment: Fatty acid oxidation ([14CO2] release) in isolated kidney endothelial cells
Protocol: (FIG. 31B) Fatty acid oxidation, as represented by [^14CO2]released. [^14C]palmitate was used as substrate and CPM counts were normalized to protein. In both cases, endothelial cells isolated from n=5 biologically independent mice/group were analyzed in triplicate. Data are mean±SEM. One-way Anova with Tukey multiple comparison post hoc test was used to calculate statistical significance. Significance—*p<0.05, **p<0.01, ***p<0.001. Fatty Acid Oxidation. Cultured isolated kidney endothelial cells were incubated with medium containing 0.75 mmol/L palmitate (conjugated to 2% free fatty acid-free BSA/[^14C]palmitate at 2 μCi/mL) for 2 h. One mL of the culture medium was transferred to a sealable tube, the cap of which housed a Whatman filter paper disc. ^14CO2 trapped in the media was then released by acidification of media using 60% perchloric acid. Radioactivity that had become adsorbed onto the filter discs was then quantified by liquid scintillation counting.

diabetic CD-1 mice = experiment: Plasma cytokine array (Luminex) in diabetic CD-1 mice with and without Wnti treatment
Protocol: Plasma cytokines and chemokines were measured in diabetic CD-1 mice with and without Wnti treatment by using a cytokine array analysis (Luminex). n=5 biologically independent mice/group. Data are mean±SEM. Student's-test (unpaired two-tailed) was used for analysis of statistical significance. Significance—*p<0.05. In one experiment, male mice were randomized to one of 4 groups sixteen weeks after induction of diabetes: (i) untreated, (ii) fenofibrate (100 mg/kg), (iii) simvastatin (40 mg/kg), or (iv) Wnt inhibitor (LGK974; 5 mg/kg). In each case, mice were treated for 4 weeks and compared to untreated diabetic CD-1 mice. In another experiment, male diabetic CD-1 mice were randomized into one of 3 groups: (i) untreated (vehicle), (ii) etomoxir (20 mg/kg) or (iii) C75 (15 mg/kg); in each case mice were treated (IP) three times/week for a total 4 weeks.

ECs from CD-1 mice = experiment: Fatty acid uptake ([14C]palmitate uptake) in isolated kidney endothelial cells
Protocol: (FIG. 31A) Fatty acid uptake was measured as [^14C]palmitate uptake. […] [^14C]palmitate was used as substrate and CPM counts were normalized to protein. In both cases, endothelial cells isolated from n=5 biologically independent mice/group were analyzed in triplicate. Data are mean±SEM. One-way Anova with Tukey multiple comparison post hoc test was used to calculate statistical significance. Significance—*p<0.05, **p<0.01, ***p<0.001. Fatty acid uptake. Cultured isolated kidney endothelial cells were incubated with medium containing 2 μCi [^14C]-palmitate. [^14C]-palmitate uptake was measured by liquid scintillation counting.

[2] = nondiabetic control mice or nondiabetic GR^ECKO, compared to untreated nondiabetic controls

## Cc1cc(-c2ncc(CC(=O)Nc3ccc(-c4cnccn4)cn3)cc2C)ccn1 [LGK974]
Control and GR^ECKO mice; control and diabetic GR^ECKO mice
  level of EMT (E-cadherin/αSMA double positive cells): significantly reduced
Control and GR^ECKO mice; diabetic GR^ECKO and diabetic control mice
  kidney weight: significant reduction
Control and GR^ECKO mice; diabetic GR^ECKO mice
  EndMT (CD31/αSMA double positive cells): less pronounced
  relative area of fibrosis: less pronounced, though still significant
  relative collagen deposition: less pronounced, though still significant
  tubular damage: less pronounced, though still significant
Control and GR^ECKO mice; diabetic control mice
  EndMT (CD31/αSMA double positive cells): significantly suppressed
  relative area of fibrosis: clearly improved
  relative collagen deposition: clearly improved
  tubular damage: clearly improved
Control and GR^ECKO mice; kidneys of diabetic GR^ECKO
  expression of HIF1α: suppressed
  expression of Snail1: suppressed
  level of PPARα: significantly increased
Control and GR^ECKO mice; [2]
  renal fibrogenic phenotype: did not result in any remarkable change
  β-catenin level: did not result in any remarkable change
[1]
  level of FAO ([14CO2] release): able to restore the level of FAO
Diabetic CD-1 mice
  plasma CCL4 level: significantly suppressed
  plasma CCL5 level: increasing
  plasma G-CSF level: significantly suppressed
  plasma IL-1β level: significantly suppressed
  plasma IL-6 level: significantly suppressed
  plasma IL-10 level: significantly suppressed
  plasma MCP-1 level: significantly suppressed
  plasma TNFα level: significantly suppressed
ECs from CD-1 mice
  FA uptake ([14C]palmitate uptake): suppressed FA uptake
